We go through 2 compounds from PubChem BioAssay AID1963429 (Molecular Pharmacology Branch, DTP, NCI, 2024).

The subject of the test is 126254-015-R-J1-PDC complex spheroid growth, % test/control. As to the kind of experiment: Anticancer human tumor 126254-015-R-J1-PDC patient-derived soft tissue sarcoma cell line growth inhibition [Asc]. The conditions noted are these: for viability, T/C: stronger effect = lower value. The method, boiled down: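 Complex solid-tumor spheroids incorporating human endothelial and mesenchymal stem cells received single agents or combinations over half-log dilution ranges anchored to clinical Cmax.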

Molecules are shown by their SMILES. Values joined by “and” are separate entries in the source; they are usually repeats but may differ in a detail not shown here. Equal values may be shown once. Bounds are passed on as bounds.
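Further: spheroids exposed to compound for seven days.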
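Wherever viability, T/C is given: 100% = DMSO vehicle control wells.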

On to `CCN1C(C(=O)NC23CCC(C(=O)O)(CC2)CC3)C(c2cccc(Cl)c2F)C2(C(=O)Nc3cc(Cl)ccc32)C12CCCCC2` (configuration not stated), for which the viability, T/C is 105% and 96.1% (compound 0.00949 µM); 95.4% [middle of 15 runs] (compound 0.03 µM); 96.8% [middle of 15 runs] (compound 0.0949 µM); 93.5% [middle of 15 runs] (compound 0.3 µM); 96.8% [middle of 15 runs] (compound 0.949 µM). Besides, the IC50 is, setting by setting: (compound alone, run of 09/27/2022) above 3 µM; (curve of compound) above 3 µM.

Take `NC(=O)C(=Cn1cnc(-c2cc(C(F)(F)F)cc(C(F)(F)F)c2)n1)c1cncnc1` + CNC(C)C(=O)NC1CN(S(=O)(=O)c2cccc(S(=O)(=O)N3CCC4CCC(C(=O)NC(c5ccccc5)c5ccccc5)N4C(=O)C(NC(=O)C(C)NC)C3)c2)CCC2CCC(C(=O)NC(c3ccccc3)c3ccccc3)N2C1=O: the IC50 reads like this: (curve of first compound, second compound 0.01 µM) 0.061 µM; (curve of first compound, second compound 0.0316 µM) 0.0244 µM; (curve of first compound, second compound 0.1 µM) 0.0243 µM; (curve of first compound, second compound 0.316 µM) 0.0168 µM; (curve of first compound, second compound 1 µM) 0.0105 µM. Moreover, the viability, T/C is 85.8% (second compound 0.01 µM, first compound 0.000949 µM); 87.5% (second compound 0.01 µM, first compound 0.003 µM); 73% (second compound 0.01 µM, first compound 0.00949 µM); 64.7% (second compound 0.01 µM, first compound 0.03 µM); 41.6% (second compound 0.01 µM, first compound 0.0949 µM); 9.66% (second compound 0.01 µM, first compound 0.3 µM). Further, the viability, T/C (second compound 0.0316 µM, first compound 0.000949 µM) is 80.4%; the viability, T/C (second compound 0.0316 µM, first compound 0.003 µM) was 77.7%; the viability, T/C (second compound 0.0316 µM, first compound 0.00949 µM) is 62.7%; the viability, T/C (second compound 0.0316 µM, first compound 0.03 µM) was 47.7%; the viability, T/C (second compound 0.0316 µM, first compound 0.0949 µM) was 25.9%; the viability, T/C (second compound 0.0316 µM, first compound 0.3 µM) was 9%. Moreover, the viability, T/C runs as follows: (second compound 0.1 µM, first compound 0.000949 µM) 58.2%; (second compound 0.1 µM, first compound 0.003 µM) 62.7%; (second compound 0.1 µM, first compound 0.00949 µM) 55.9%; (second compound 0.1 µM, first compound 0.03 µM) 48.9%; (second compound 0.1 µM, first compound 0.0949 µM) 23%; (second compound 0.1 µM, first compound 0.3 µM) 5.96%. In addition, the viability, T/C was 60% (second compound 0.316 µM, first compound 0.000949 µM); 60.8% (second compound 0.316 µM, first compound 0.003 µM); 54.7% (second compound 0.316 µM, first compound 0.00949 µM); 44% (second compound 0.316 µM, first compound 0.03 µM); 15.1% (second compound 0.316 µM, first compound 0.0949 µM); 3.45% (second compound 0.316 µM, first compound 0.3 µM). Further, the viability, T/C runs as follows: (second compound 1 µM, first compound 0.000949 µM) 51.9%; (second compound 1 µM, first compound 0.003 µM) 57.5%; (second compound 1 µM, first compound 0.00949 µM) 53.4%; (second compound 1 µM, first compound 0.03 µM) 35.8%; (second compound 1 µM, first compound 0.0949 µM) 18.8%; (second compound 1 µM, first compound 0.3 µM) 5.88%.
